Data set [1] deals with MDA-MB-435 human breast carcinoma. The data set is described as follows: Anchorage Dependent Growth Monolayer Assay (ADGMA), MTS readout. The class given is cell-based. Conditions: 3-day exposure, MDA-MB-435 cells, read-out: IC50 values (average ± S.D.) MDA-MB-435. From the text:
(§1) As indicated above, all of the compounds of formula I, and their corresponding pharmaceutically acceptable acid addition salts, are anti-tumor agents and are, therefore, useful in inhibiting the growth of various lymphomas, sarcomas, carcinomas, myelomas, and leukemia cell lines. […] This assay was adapted from the 60 cell line assay used by the National Cancer Institute (NCl) with the following modifications: 1) cell lines representative for the important tumor types, viz., MDA-MB-435 human breast, A549 non-small cell lung, H1299 lung, HCT-116 colon and PC-3 prostate carcinomas, and U2OS osteosarcomas were utilized; and 2) a tetrazolium derivative, viz., 3-(4,5-dimethylthiazol-2-yl)-5-(3-carboxymethoxyphenyl)-2-(4-sulfophenyl)-2H-tetrazolium, inner salt (MTS), was utilized to determine cell density.
(§2) The ADGMA compares the number of viable cells following a 3-day exposure to a test compound relative to a number of cells present at the time the test compound was added. […] The absorbance at 490 nm (A490) of the formazan derivative is proportional to the number of viable cells. The IC50 for a test compound is the concentration of compound required to reduce the final cell number to 50% of the final control cell number. If cell proliferation is inhibited, the assay further defines compounds as cytostatic (cell number after 3-day compound incubation >cell number at time of compound addition) or cytotoxic (cell number after 3-day compound incubation <cell number at time of compound addition).
(§3) The MDA-MB-435 human breast carcinoma and the A549 non-small cell lung carcinoma lines were obtained from the American Type Culture Collection (ATCC) and used between passages 4-20 following thawing. MDA-MB-435 human breast carcinoma and A549 non-small cell lung carcinoma cells were maintained and plated in DME/F12 medium containing 10% fetal bovine serum, 15 mM HEPES (pH=7.4), 100 units/mL penicillin, and 100 µg/mL streptomycin.
(§4) Cell lines are trypsinized and counted using a Coulter counter to determine plating densities. Cells are then plated in their respective maintenance media (100 µL/well) in 96 well plates at the following densities: MDA-MB-435 and U2OS, 3,000 cells/well; A549 and HCT-116, 700 cells/well; H1299, 1,000 cells/well; and PC-3, 2500 cells/well. The number of cells plates as determined in preliminary experiments, results in cell densities of 75-90% of confluency by 4 days after plating. Initial cell densities, assayed one day after plating, are roughly 0.15-0.20 absorbance units greater than the media blank. Ninety-six well plates are seeded on day 0 and the test compounds are added on day 1. A control plate is created for each cell line that receives media only in row A and cells in row B. One day following plating, test compounds are added (in a final volume of 100 µL) to the test plates. Control plates receive 10 µL MTS mixture (prepared fresh on day of addition to cell plates at a ratio of 10 µL of a 0.92 mg/mL solution of PMS to a 190 µL of a 2 mg/mL solution of MTS) and 100 µL media. A490 of control plates is read 4 h after MTS addition to determine initial cell density values for each cell line. Three days after addition of test compound, 10 µL/well of MTS mixture is added to the test plates and A490 is read 4 h later. A490 values for wells containing cells are corrected for media absorbance, then normalized to initial density readings to determine percent net growth. IC50 values are determined from graphs of percent net growth as a function of compound concentration. Percent net growth is calculated as (Cell + Drug A490 - Initial A490/Cell + Drug Vehicle A490 - Initial A490) x 100%.

For data set [2], the system named is H1299 lung carcinoma. The data set is described as above. The class given is cell-based. The conditions noted are these: 3-day exposure, H1299 cells, read-out: IC50 values (average ± S.D.) H1299.
Excerpt: as §1, §2
(§5) The H1299 lung, HCT-116 colon, and PC-3 prostate carcinoma cell lines, and U2OS osteosarcoma cell line were obtained from the American Type Culture Collection (ATCC) and used between passages 4-20 following thawing. H1299 and HCT-116 cells were maintained in RPMI 1640 containing 10% FBS, 100 units/mL penicillin and 100 µg/mL streptomycin; PC-3 cells were maintained in Kahn's Modification containing 10% FBS, 100 units/mL penicillin and 100 µg/mL streptomycin; and U2OS cells were maintained in DMEM containing 10% FBS, 100 units/mL penicillin and 100 µg/mL streptomycin.
as §4

Data set [3] deals with HCT-116 colon carcinoma. The description is as above. The class given is cell-based. Conditions: 3-day exposure, HCT-116 cells, read-out: IC50 values (average ± S.D.) HCT-116.
Excerpt: as §1, §2, §5, §4

In data set [4] the test system is U2OS osteosarcoma. The data set is described as above. Type of data set: cell-based. The conditions noted are these: 3-day exposure, U2OS cells, read-out: IC50 values (average ± S.D.) U2OS.
Excerpt: as §1, §2, §5, §4

The test system of data set [5] is MDA-MB-435 tumor xenografts. The data set is described as follows: Human tumor xenograft growth inhibition in athymic nude mice. Type of data set: in vivo. The conditions noted are these: 3X/week for 3 weeks; for %T/C: * = p<0.05. As to the method: (§6) Utilizing this model, one can measure the ability of test compounds to inhibit the growth of human tumor xenografts growing subcutaneously (s.c.) in athymic nude mice. The histologic tumor type employed was MDA-MB-435 breast carcinoma for Ex.1 and 7 and A549 non-small cell lung carcinoma for Ex. 1-3.
MDA-MB-435 human breast carcinoma: Treatments were started 15 d post implantation (3 x 10^6 cells/mouse), when a mean tumor volume of approximately 45 mm^3 was reached. Ex.1 and 7 were administered iv at three times per week for 3 weeks (days 15, 17, 20, 22, 24, 27, 29, and 31), at 3.3, 10, and 33 µmol/kg. Doxorubicin was administered iv at 2 mg/kg using the same schedule. Each data point represents tumor growth (mean ± SEM), or body weight (mean), with an initial group size of n = 8, from a representative experiment performed twice. An asterisk (*) indicates p < 0.05 using a one-tailed Student's t-test.
(§7) Toxicity was monitored by recording average group body weights twice weekly, and by daily observation of general health. Efficacy was monitored by taking measurements of tumor length, width, and depth weekly using digital calipers coupled to automated data collectors. Mean tumor volume (MTV) at initiation of therapy was subtracted from final MTV in order to express the actual tumor growth during treatment (A MTV). Anti-tumor activity was expressed as %T/C (A MTV of treated group ÷ Δ MTV of control group X100%). Statistical significance was evaluated using a one-tailed Student's t-test (p<0.05).
On the technique in general: In xenograft studies the graft and the host belong to different species.

The subject of data set [6] is A549 tumor xenografts. The data set is described as above. The class given is in vivo. The conditions noted are these: 5X/week for 2 weeks; for Δ MTV / %T/C: recorded on day 24; for %T/C: * = p<0.05. As to the method: as §6
A549 non-small cell lung carcinoma: Treatments were started 17 d post-implantation (1 x 10^7 cells/mouse), when a mean tumor volume of approximately 120 mm^3 was reached. Ex. 1-3 were administered iv on days 17-21 (followed by 2 d rest, then a second cycle of treatment on days 24-28). Total daily doses of 10 or 30 µmol/kg were administered as a single injection. Data in this table were recorded on day 24, 3 d after the last treatment of the first cycle. An asterisk (*) indicates p < 0.05 using a one-tailed Student's t-Test.
as §7

Data set [7] has as its system A549 non-small cell lung carcinoma. The data set is described as follows: Anchorage Dependent Growth Monolayer Assay (ADGMA), MTS readout. Type of data set: cell-based, human. The conditions noted are these: 3-day exposure, A549 cells, read-out: IC50 values (average ± S.D.) A549.
Excerpt: as §1, §2, §3, §4

Read-outs that look alike come from different tables or passages of the source. Where only a bound is given, the exact number is not on record here.

As a reminder, the IC50 is the concentration needed to halve the response being measured.

In the case of `CCCCCCCCCCOC(=O)O[C@@H]1CC[C@H](NC(=O)[C@H](OC)[C@H](O)[C@@H](O)[C@H](O)/C=C/C(C)(C)C)C(=O)NC1` [Ex. 1, (2R, 3R, 4S, 5R, 6E)-3,4,5-trihydroxy-2-methoxy-8,8-dimethyl-N-[(3S, 6R)-hexahydro-2-oxo-6-([[decyloxy]carbonyl]oxy)-2H-azepin-3-yl]non-6-enonamide], the half-inhibitory concentration (IC50) was 210 ± 140 nM in data set [1] (Homo sapiens, 72 h); 570 ± 220 nM in data set [2] (Homo sapiens, NCI-H1299, 72 h); 530 ± 350 nM in data set [3] (Homo sapiens, 72 h); more than 1000 nM in data set [4] (Homo sapiens, 72 h). The Dead/Total in data set [5] (3.3 µmol/kg iv), in data set [5] (10 µmol/kg iv), in data set [5] (33 µmol/kg iv), in data set [6] (10 µmol/kg iv daily) and in data set [6] (30 µmol/kg iv daily) was 0/8 each time. Also, the “Δ MTV” value in data set [5] (3.3 µmol/kg iv) came out at 132 mm^3; in data set [5] (10 µmol/kg iv), 162 mm^3; in data set [5] (33 µmol/kg iv) it was 79 mm^3; in data set [6] (10 µmol/kg iv daily), 95 mm^3; in data set [6] (30 µmol/kg iv daily), 39 mm^3. For the same compound, the “%T/C” value is recorded as 74* % in data set [5] (3.3 µmol/kg iv); 90% in data set [5] (10 µmol/kg iv); 44* % in data set [5] (33 µmol/kg iv); 73% in data set [6] (10 µmol/kg iv daily); 30* % in data set [6] (30 µmol/kg iv daily).
On to `CCCCCOC(=O)O[C@@H]1CC[C@H](NC(=O)[C@H](OC)[C@H](O)[C@@H](O)[C@H](O)/C=C/C(C)(C)C)C(=O)NC1` [Ex. 2, (2R, 3R, 4S, 5R, 6E)-3,4,5-trihydroxy-2-methoxy-8,8-dimethyl-N-[(3S, 6R)-hexahydro-2-oxo-6-([[pentyloxy]carbonyl]oxy)-2H-azepin-3-yl]non-6-enonamide], for which the IC50 in data set [1] is 70 ± 20 nM; in data set [7] it was 117 ± 20 nM; in data set [2], 210 ± 170 nM; in data set [3] it was 170 ± 100 nM; in data set [4], 90 ± 30 nM. The Dead/Total in data set [6] (10 µmol/kg iv daily) and in data set [6] (30 µmol/kg iv daily) was 0/8 throughout. Moreover, the “Δ MTV” value is listed as 42 mm^3 in data set [6] (10 µmol/kg iv daily) and 60 mm^3 in data set [6] (30 µmol/kg iv daily). For the same compound, the “%T/C” value was 32* % in data set [6] (10 µmol/kg iv daily) and 46* % in data set [6] (30 µmol/kg iv daily).
For the compound `CO[C@@H](C(=O)N[C@H]1CC[C@@H](OC(=O)OCC(C)(C)C)CNC1=O)[C@H](O)[C@@H](O)[C@H](O)/C=C/C(C)(C)C` [Ex. 5, (2R, 3R, 4S, 5R, 6E)-3,4,5-trihydroxy-2-methoxy-8,8-dimethyl-N-[(3S, 6R)-hexahydro-2-oxo-6-([[2,2-dimethylpropoxy]carbonyl]oxy)-2H-azepin-3-yl]non-6-enonamide], the IC50 turned out to be 120 ± 20 nM in data set [1] (Homo sapiens, 72 h); 138 ± 8 nM in data set [7] (Homo sapiens, 72 h); 360 ± 120 nM in data set [2] (Homo sapiens, NCI-H1299, 72 h); 270 ± 100 nM in data set [3] (Homo sapiens, 72 h); 620 ± 160 nM in data set [4] (Homo sapiens, 72 h).
As to `CO[C@@H](C(=O)N[C@H]1CC[C@@H](OC(=O)OC2CCCCC2)CNC1=O)[C@H](O)[C@@H](O)[C@H](O)/C=C/C(C)(C)C` [Ex. 6, (2R, 3R, 4S, 5R, 6E)-3,4,5-trihydroxy-2-methoxy-8,8-dimethyl-N-[(3S, 6R)-hexahydro-2-oxo-6-([[cyclohexyloxy]carbonyl]oxy)-2H-azepin-3-yl]non-6-enonamide], the half-inhibitory concentration (IC50) in data set [1] (Homo sapiens, 72 h) is 350 ± 110 nM; in data set [7] (Homo sapiens, 72 h) it was 441 ± 63 nM; in data set [2] (Homo sapiens, NCI-H1299, 72 h), 570 ± 290 nM; in data set [3] (Homo sapiens, 72 h), 400 ± 120 nM; in data set [4] (Homo sapiens, 72 h) it was 770 ± 400 nM.
As for `CCCCCCCCCCCOCC(=O)O[C@@H]1CC[C@H](NC(=O)[C@H](OC)[C@H](O)[C@@H](O)[C@H](O)/C=C/C(C)(C)C)C(=O)NC1` [Ex. 7, (2R, 3R, 4S, 5R, 6E)-3,4,5-trihydroxy-2-methoxy-8,8-dimethyl-N-[(3S, 6R)-hexahydro-2-oxo-6-([[undecyloxy]acetyl]oxy)-2H-azepin-3-yl]non-6-enonamide], in data set [5] (3.3 µmol/kg iv), the Dead/Total is 0/8, the “Δ MTV” value is on record as 165 mm^3 and the “%T/C” value turned out to be 102%. Also, in data set [5] (10 µmol/kg iv), the Dead/Total was 0/8, the “Δ MTV” value came out at 103 mm^3 and the “%T/C” value worked out at 64%. For the same compound, in data set [5] (33 µmol/kg iv), the Dead/Total is 0/8, the “Δ MTV” value came to 48 mm^3 and the “%T/C” value is 30* %.

Source of the values: EP1282604B1, “SUBSTITUTED CAPROLACTAM CARBONATES AND ETHERS AND THEIR USE AS ANTI-TUMOR AGENTS” (Novartis AG, priority 2000, dated 2001).
